Here are results for two compounds from ChEMBL document CHEMBL4507276 (2021).

Series [1] deals with T1, Serine/threonine-protein kinase Nek2 (Homo sapiens) (UniProt P51955).
T1 sequence (whole entry): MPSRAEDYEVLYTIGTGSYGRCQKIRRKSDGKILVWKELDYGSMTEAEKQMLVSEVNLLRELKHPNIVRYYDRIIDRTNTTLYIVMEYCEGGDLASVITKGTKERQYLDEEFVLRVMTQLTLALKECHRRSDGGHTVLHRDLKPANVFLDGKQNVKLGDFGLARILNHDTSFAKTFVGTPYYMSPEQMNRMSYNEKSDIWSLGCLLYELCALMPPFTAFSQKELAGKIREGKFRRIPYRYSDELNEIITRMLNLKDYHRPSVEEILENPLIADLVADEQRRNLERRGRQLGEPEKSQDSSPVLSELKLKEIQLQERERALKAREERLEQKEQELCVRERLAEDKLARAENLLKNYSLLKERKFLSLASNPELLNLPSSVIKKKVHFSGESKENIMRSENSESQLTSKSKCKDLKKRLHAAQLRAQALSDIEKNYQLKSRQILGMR
The conditions noted are these: Compound concentration 1000.0 nM.

Series [2] has as its target GABA-A receptor; anion channel (Rattus norvegicus) (UniProt O09028+P15431+P18506+P18508+P19969+P20236+P23574+P23576+P28471+P28473+P30191+P62813+P63079+P63138+Q91ZM7+Q9ES14). The following applies: Compound concentration 10.0 uM.
The target in series [3] is Serine/threonine-protein kinase/endoribonuclease IRE1 (Homo sapiens) (UniProt O75460). The following applies: Compound concentration 1000.0 nM.
The target in series [4] is Homeodomain-interacting protein kinase 2 (Homo sapiens) (UniProt Q9H2X6). The conditions noted are these: Compound concentration 1000.0 nM.
For series [5], the target named is PI3-kinase p110-delta/p85-alpha (Homo sapiens) (UniProt P27986+O00329). The series is described as follows: PIK3CDPIK3R1 Invitrogen selectivity data (BI). The series is classed as protein-complex assay. The following applies: Compound concentration 3.0 uM.
For series [6], the target named is Tyrosine-protein kinase ABL2 (Homo sapiens) (UniProt P42684). The series is described as follows: ABL2 Invitrogen selectivity data (BI). The conditions noted are these: Compound concentration 3.0 uM.
Series [7] deals with Serine/threonine-protein kinase N1 (Homo sapiens) (UniProt Q16512). The series can be described thus: PKN1 Invitrogen selectivity data (BI). The following applies: Compound concentration 3.0 uM.
Series [8] deals with T2, Inhibitor of nuclear factor kappa-B kinase subunit beta (Homo sapiens) (UniProt O14920).
T2 sequence (whole entry): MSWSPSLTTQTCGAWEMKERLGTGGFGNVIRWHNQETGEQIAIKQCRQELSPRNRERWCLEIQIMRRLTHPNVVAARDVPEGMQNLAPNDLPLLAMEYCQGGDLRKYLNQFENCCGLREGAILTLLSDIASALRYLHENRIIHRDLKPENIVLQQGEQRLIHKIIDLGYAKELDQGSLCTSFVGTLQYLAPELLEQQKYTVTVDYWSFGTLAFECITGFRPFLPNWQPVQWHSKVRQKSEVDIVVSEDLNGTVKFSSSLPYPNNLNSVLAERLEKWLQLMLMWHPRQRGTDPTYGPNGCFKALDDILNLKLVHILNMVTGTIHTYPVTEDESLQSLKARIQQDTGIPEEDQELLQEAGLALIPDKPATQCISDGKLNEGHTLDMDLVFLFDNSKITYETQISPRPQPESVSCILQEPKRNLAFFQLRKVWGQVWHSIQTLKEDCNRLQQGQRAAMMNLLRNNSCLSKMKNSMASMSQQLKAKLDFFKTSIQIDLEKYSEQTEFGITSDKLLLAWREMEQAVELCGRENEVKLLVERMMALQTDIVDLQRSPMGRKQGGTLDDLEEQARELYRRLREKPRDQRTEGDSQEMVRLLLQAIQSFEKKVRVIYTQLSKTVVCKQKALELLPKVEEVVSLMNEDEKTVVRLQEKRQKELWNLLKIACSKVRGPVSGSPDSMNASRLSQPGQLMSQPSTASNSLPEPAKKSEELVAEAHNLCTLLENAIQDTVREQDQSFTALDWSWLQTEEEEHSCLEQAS
The series is described as follows: IKBKB Invitrogen selectivity data (BI). The following applies: Compound concentration 3.0 uM.

Series [9] has as its target T3, Alpha-1B adrenergic receptor (Homo sapiens) (UniProt P35368).
T3 sequence (whole entry): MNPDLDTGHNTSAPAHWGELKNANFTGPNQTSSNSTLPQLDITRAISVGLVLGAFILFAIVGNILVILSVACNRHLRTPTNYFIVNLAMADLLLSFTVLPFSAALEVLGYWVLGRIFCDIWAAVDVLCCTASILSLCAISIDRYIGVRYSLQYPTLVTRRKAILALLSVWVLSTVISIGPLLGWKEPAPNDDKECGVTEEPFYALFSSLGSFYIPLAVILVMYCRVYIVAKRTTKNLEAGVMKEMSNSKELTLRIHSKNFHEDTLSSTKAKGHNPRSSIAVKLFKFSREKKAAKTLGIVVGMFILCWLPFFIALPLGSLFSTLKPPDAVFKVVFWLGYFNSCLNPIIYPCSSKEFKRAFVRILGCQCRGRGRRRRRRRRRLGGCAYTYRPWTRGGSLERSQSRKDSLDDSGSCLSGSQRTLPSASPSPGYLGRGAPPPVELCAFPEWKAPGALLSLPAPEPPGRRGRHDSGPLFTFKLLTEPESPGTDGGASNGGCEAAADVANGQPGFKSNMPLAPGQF
The series can be described thus: ALPHA1B/HU Cerep selectivity data (BI). The conditions noted are these: Compound concentration 20.0 uM.

Series [10] deals with L-type Ca2+ channel (verapamil site), Cav1.2 alpha-1C (Rattus norvegicus, UniProt P22002). The series is described as follows: CA+/VERSI/R Cerep selectivity data (BI). Details: mode of action inhibitor; call rule not given here. The conditions noted are these: rat brain, probe [3H](-)D888, compound concentration 20 uM, read-out: % Ctrl.
Chain of L-type Ca2+ channel (verapamil site), Cav1.2 alpha-1C (P22002 whole entry): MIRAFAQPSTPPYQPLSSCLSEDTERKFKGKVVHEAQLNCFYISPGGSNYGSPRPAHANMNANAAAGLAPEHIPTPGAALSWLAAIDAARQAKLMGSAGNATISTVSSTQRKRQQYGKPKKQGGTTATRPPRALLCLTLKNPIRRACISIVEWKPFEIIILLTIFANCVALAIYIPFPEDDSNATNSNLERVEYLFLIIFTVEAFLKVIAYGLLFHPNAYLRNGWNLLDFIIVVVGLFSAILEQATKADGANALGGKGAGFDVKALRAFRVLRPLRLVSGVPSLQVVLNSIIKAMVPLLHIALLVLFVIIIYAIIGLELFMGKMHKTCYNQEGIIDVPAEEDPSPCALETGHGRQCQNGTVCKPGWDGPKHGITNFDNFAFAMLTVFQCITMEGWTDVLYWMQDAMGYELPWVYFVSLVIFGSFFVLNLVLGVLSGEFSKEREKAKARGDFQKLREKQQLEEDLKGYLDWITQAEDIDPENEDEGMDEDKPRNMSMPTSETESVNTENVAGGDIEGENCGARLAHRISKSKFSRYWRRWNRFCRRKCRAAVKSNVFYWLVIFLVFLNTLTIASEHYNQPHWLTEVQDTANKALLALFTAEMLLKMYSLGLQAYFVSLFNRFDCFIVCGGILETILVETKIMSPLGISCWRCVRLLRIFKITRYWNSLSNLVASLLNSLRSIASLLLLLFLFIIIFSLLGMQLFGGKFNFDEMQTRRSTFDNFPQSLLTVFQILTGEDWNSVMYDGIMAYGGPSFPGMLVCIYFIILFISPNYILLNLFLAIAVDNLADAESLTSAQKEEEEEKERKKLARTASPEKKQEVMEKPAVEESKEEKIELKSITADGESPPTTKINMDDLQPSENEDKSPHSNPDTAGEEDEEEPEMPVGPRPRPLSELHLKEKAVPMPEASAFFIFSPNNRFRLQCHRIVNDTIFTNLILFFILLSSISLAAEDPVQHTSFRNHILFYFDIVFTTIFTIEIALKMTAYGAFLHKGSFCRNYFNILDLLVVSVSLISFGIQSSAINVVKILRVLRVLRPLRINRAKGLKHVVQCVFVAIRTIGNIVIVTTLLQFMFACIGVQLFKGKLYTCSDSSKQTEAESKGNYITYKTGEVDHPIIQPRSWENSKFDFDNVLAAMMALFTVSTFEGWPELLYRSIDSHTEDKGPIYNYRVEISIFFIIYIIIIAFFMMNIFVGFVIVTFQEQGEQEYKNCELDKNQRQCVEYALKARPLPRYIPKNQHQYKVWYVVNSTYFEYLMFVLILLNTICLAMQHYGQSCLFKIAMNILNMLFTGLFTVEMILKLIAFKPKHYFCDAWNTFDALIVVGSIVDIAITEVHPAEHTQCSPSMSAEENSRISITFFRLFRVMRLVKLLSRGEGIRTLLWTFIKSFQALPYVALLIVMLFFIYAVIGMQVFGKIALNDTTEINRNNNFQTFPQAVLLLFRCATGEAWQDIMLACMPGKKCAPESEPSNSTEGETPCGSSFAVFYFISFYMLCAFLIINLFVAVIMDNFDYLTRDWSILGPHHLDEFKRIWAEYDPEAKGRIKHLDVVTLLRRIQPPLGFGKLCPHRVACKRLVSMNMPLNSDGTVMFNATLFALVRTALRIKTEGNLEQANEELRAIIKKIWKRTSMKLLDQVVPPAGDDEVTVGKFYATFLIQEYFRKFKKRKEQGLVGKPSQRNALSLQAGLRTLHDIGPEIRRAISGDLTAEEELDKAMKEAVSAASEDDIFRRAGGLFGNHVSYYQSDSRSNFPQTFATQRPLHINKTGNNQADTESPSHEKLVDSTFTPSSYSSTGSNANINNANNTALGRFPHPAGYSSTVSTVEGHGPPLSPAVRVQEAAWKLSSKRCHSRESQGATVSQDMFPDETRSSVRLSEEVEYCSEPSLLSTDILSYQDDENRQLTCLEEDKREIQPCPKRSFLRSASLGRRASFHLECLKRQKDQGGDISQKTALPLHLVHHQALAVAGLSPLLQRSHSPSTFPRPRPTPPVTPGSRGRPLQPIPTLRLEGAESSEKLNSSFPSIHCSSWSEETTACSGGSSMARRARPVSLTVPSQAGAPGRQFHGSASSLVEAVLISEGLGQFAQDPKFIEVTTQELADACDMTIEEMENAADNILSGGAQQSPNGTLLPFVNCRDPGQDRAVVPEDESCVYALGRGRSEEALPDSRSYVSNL

Chain of Serine/threonine-protein kinase/endoribonuclease IRE1 (Homo sapiens) (O75460 19-977 limits assumed): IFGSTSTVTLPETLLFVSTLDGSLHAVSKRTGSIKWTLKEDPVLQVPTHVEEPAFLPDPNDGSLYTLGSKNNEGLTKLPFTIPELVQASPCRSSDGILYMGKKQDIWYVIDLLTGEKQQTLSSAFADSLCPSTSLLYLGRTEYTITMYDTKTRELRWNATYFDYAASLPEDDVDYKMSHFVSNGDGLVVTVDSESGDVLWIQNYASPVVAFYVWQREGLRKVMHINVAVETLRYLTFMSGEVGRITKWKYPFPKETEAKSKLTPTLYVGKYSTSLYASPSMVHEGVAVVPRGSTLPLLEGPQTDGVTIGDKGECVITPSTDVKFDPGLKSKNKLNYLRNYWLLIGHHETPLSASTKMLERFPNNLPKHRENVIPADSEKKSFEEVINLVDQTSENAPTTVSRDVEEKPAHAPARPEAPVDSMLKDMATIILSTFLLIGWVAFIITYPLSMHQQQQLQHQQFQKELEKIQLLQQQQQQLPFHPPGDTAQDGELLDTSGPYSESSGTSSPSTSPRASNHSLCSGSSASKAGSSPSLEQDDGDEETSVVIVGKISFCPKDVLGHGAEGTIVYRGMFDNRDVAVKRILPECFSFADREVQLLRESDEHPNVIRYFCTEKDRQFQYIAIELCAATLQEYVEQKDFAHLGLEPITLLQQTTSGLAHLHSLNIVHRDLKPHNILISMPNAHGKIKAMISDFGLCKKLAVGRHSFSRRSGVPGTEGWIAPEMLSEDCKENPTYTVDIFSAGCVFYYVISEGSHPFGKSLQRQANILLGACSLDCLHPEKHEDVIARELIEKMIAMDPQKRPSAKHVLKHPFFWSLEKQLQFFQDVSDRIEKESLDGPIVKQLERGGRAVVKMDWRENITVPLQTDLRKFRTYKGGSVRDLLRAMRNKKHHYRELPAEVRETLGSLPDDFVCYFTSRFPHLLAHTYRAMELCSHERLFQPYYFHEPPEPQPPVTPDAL
Chain of Homeodomain-interacting protein kinase 2 (Homo sapiens) (Q9H2X6 whole entry, looked up): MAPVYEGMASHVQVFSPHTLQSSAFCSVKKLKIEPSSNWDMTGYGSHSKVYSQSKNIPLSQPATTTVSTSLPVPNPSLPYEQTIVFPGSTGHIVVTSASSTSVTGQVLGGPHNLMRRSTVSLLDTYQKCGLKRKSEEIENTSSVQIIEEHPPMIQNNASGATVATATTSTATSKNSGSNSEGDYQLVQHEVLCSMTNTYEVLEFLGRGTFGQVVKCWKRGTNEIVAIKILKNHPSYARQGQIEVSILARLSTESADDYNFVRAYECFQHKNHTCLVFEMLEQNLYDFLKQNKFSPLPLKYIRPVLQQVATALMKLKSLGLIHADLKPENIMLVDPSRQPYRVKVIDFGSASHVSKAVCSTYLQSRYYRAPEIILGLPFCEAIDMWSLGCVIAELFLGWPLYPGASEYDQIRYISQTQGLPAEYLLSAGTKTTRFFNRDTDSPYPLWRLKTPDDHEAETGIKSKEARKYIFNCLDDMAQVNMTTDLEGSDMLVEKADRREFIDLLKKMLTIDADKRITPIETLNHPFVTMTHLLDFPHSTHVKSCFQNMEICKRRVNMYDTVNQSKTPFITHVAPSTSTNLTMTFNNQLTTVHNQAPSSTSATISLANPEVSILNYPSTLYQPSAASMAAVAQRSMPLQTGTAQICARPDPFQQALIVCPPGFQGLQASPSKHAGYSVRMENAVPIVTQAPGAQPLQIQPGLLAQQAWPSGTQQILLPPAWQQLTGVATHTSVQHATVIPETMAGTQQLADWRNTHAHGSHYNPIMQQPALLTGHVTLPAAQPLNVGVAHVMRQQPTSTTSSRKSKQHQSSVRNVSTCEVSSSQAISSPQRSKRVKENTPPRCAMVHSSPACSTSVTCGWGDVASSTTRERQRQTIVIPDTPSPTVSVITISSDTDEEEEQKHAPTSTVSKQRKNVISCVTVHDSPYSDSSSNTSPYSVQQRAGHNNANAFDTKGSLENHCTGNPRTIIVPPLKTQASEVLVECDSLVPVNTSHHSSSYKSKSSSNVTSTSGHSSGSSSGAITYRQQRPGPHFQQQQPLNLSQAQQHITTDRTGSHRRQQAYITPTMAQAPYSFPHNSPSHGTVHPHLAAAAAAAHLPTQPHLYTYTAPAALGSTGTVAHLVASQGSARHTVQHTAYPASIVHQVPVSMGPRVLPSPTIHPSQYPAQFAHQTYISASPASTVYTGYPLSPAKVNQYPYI

As to `CN(C)C(=O)Cn1cc(-c2nc(C3(c4ccc(-c5cnc(N)nc5)cc4)CC3)no2)cn1` [BI 0153], the results for the residual activity in [1], in series [3] and in series [4] were 100%, 69% and 94%, respectively. Also, the inhibition in [2] is 19.4%.
Turning to `CN(C)C(=O)Cn1cc(-c2nc([C@@](C)(c3ccc(-c4cnc(N)nc4)cc3)C3CC3)no2)cn1` [BI 665915], the residual activity in [1] was 97%; in series [5], 99.5%; in [6], 79.5%; in [7], 98.5%; in series [8] it was 96.5%; in series [9] it was 120%. Further, the values for the residual activity in series [3] and in series [4] were 86% and 87%, respectively. Further, the inhibition in series [2] is 25.5%. Besides, in series [10], the activity at 20 µM is 90% (not active).

As a reminder, the residual activity is the signal under treatment as a percentage of the control signal. The term inhibition denotes the relative decrease from the control value, in per cent.
